From publication PMC4381587, “A novel PI3K inhibitor PIK-C98 displays potent preclinical activity against multiple myeloma” (Oncotarget, 2014)

How the values were obtained:
[1] = biological target: recombinant human PI3K isoform α (Homo sapiens, UniProt P42336); experiment: Kinase activity in cell-free assay (HotSpot), PI3Kα; type: biochemical; conditions: read-out: IC50 against PI3K α isoform
Protocol: (§1) To confirm this hypothesis, the inhibitory potency of C98 on PI3K enzymes was measured in a cell-free system with individual recombinant human PI3K isoforms. […] To further evaluate its specificity on PI3K, the effects of C98 on other associated kinases AKT, PDK1, and mTOR were also measured in the enzymatic systems. […] Therefore, C98 preferred to inhibit PI3K activity.
(§2) Figure 1 C98 inhibits PI3K activity (A) Chemical structure of C98. (B) OPM2 cells were starved overnight and then treated with six compounds identified from the virtual screening for 2 hr, followed by IGF-1 stimulation for 15 min. Cell lysates were prepared for AKT expression and phosphorylation analyses. The known PI3K inhibitor S14161 was used as a positive control. (C) OPM2 cells were starved overnight, then treated with C98 at indicated concentration (25, 50 and 100 μM) or S14161 (100 μM) for 2 hr, followed by IGF-1 (100 ng/mL) stimulation for 15 min Cell lysates were prepared for AKT expression and phosphorylation analyses. […] Activity of each kinase was determined with HotSpot technology as described in the Methods section “Kinase activity in cell-free assay”. […]

PDK1 = tested on: T1, PDK1; experiment: Kinase activity in cell-free assay, PDK1; type: biochemical; conditions: enzymatic system, even at a concentration of 300 μM
T1 construct: purchased Reaction Biology Corp., Malvern, PA, USA
Protocol: as §1
Kinase activity in the presence of C98 was performed by using the HotSpot technology (Reaction Biology Corp., Malvern, PA, USA) as described previously.

[2] = biological target: recombinant human PI3K isoform δ (Homo sapiens, UniProt O00329); experiment: Kinase activity in cell-free assay (HotSpot), PI3Kδ; type: biochemical; conditions: read-out: IC50 against PI3K δ isoform
Sequence of recombinant human PI3K isoform δ (O00329 whole entry, canonical isoform): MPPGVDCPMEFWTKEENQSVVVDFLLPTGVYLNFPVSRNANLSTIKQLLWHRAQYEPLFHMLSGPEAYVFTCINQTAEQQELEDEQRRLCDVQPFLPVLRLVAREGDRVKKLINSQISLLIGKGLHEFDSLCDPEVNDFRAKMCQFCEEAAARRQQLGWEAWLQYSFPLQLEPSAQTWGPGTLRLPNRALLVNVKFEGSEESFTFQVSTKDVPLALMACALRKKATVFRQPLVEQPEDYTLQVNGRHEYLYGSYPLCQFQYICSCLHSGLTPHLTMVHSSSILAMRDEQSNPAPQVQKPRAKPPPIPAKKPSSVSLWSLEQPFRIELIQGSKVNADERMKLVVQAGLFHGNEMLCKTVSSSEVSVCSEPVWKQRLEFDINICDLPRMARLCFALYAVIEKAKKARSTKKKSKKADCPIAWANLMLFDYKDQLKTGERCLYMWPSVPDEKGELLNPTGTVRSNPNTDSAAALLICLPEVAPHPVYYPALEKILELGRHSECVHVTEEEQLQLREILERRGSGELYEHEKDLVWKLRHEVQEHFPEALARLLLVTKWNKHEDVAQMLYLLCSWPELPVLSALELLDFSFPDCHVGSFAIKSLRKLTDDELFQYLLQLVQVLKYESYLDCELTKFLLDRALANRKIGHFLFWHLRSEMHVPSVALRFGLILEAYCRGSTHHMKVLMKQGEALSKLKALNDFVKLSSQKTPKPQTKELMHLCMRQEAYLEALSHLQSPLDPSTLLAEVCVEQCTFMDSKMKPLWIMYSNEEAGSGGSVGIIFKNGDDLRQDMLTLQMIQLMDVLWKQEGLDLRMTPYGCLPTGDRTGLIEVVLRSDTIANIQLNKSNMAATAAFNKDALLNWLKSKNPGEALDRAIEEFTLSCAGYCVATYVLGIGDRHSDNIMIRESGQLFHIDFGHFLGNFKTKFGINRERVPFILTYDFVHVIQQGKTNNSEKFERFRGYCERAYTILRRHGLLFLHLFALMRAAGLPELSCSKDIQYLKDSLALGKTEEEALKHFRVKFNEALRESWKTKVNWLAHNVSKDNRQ
Sequence of recombinant human PI3K isoform δ (P27986 whole entry partner, canonical isoform): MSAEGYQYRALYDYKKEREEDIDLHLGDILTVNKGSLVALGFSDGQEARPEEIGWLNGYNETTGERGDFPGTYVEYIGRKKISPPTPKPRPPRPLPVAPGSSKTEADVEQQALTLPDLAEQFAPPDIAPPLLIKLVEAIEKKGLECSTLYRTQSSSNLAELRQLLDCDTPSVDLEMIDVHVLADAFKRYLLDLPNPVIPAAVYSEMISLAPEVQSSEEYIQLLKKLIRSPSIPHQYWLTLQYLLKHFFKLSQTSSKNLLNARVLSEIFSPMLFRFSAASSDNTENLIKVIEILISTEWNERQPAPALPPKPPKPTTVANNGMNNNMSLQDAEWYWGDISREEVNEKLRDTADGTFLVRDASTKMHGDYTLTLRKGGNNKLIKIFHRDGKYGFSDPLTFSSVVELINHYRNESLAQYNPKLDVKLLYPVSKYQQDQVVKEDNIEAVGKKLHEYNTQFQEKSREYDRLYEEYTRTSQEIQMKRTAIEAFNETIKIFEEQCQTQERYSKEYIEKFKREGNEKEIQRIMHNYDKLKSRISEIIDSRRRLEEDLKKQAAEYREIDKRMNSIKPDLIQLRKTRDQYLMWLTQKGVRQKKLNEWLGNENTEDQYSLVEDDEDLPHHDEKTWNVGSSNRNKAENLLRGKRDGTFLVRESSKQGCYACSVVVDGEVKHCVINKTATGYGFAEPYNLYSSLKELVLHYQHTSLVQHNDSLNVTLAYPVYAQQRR
Protocol: as §1, §2

[3] = tested on: PI3K/AKT/mTOR pathway in OPM2 and JJN3 cells; experiment: Immunoblotting of PI3K/AKT/mTOR pathway in OPM2 and JJN3 cells; type: cell-based, human; conditions: OPM2 and JJN3, increasing concentration, 24 hr
Protocol: Subsequently, the inhibition of C98 on the PI3K signaling pathway was evaluated in MM cell lines OPM2 and JJN3. […] Because all these kinases are downstream signaling proteins in the PI3K pathway while C98 had no effects on AKT and mTOR in the cell free assay, the inhibition of C98 on these kinases was probably due to its suppression on PI3K.
(B) LP1 and JJN3 cells were starved overnight, then treated with C98 or S14161 for 2 hr, followed by IGF-1 (100 ng/mL) for 15 min. Cells were then prepared for the analysis of the expression of p-AKT, t-AKT, p-IGF-1R, and IGF-1R by immunoblotting. (C) OPM2 and JJN3 cells were treated with increasing concentrations of C98 for 24 hr before being applied to immunoblotting against p-ERK, t-ERK, p-P38, t-P38, p-Src, t-Src, p-STAT3, or t-STAT3. GAPDH and β-actin were used as loading controls.
The immunoblotting assays were performed as described previously. IRDye 680 goat anti-mouse and IRDye 800CW goat anti-rabbit antibodies were from Odyssey (San Ramon, CA, USA).

[4] = Pharmacokinetic study in nude mice, oral; type: in vivo; conditions: mouse, one oral bolus 40 mg/kg, plasma
Protocol: To further characterize C98 in the treatment of MM, we determined its pharmacokinetic parameters. One bolus of 40 mg/kg of C98 was orally administrated, blood samples were then collected at the time points of 0.167, 0.5, 1, 2, 4, 6, 8, and 24 hr.
Prior to dose administration, nude mice (Shanghai Slac Laboratory Animal Co. Ltd., Shanghai, China) were fasted overnight with free access to water in the regular light-dark cycle. A group of 9 mice received an oral dose of C98 at 40 mg/kg. Blood samples were collected from three mice (n = 3) at each time points as follows: 0.167, 0.5, 1, 2, 4, 6, 8, and 24 hr. Blood samples (100 μL) were immediately mixed with 10 μL of EDTA and plasma was obtained by centrifugation at 1.3 × 10^4 rpm for 10 min. Samples were stored at –80°C for LC-MS/MS analysis. Plasma concentration versus time was analyzed using WinNolin software (version 6.2.1, Pharsight, USA) and the pharmacokinetic parameters maximum drug concentration (Cmax), time to reach maximum drug concentration (Tmax), half life (t1/2), area under the plasma level-time curve (AUC) were calculated.
Concentrations of C98 in plasma and in tumor tissues were analyzed by a LC-MS/MS method as described previously. Chromatographic separation was achieved using an Agela Venusil XBP C18 column (50 × 2.1 mm; […] particle size, Bonna-Agela Technologies, Tianjin, China). The column temperature was maintained at 40°C. Gradient elution at a flow rate of 0.3 mL/min was performed using the mobile phases: A, acetonitrile: water: formic acid (5: 95: 0.1, v: v: v) and B, acetonitrile: water: formic acid (95: 5: 0.1, v: v: v).
The mass spectrometer was operated in the negative ionization mode. The ion transitions for the multiple reaction monitored were: C98, 346.6 (M-H)→312.7; betamethasone (internal standard, IS), 391.1 (M-H)→ 361.4, with a dwell time of 100 ms per transition. After setting the collision energy and mass transition for C98 and the Internal standard, all other parameters were optimized for the best sensitivity. Data was processed by the Analyst 1.5.2 data collection and integration software (AB Sciex, Framingham, MA).
Supplementary Figure S5: The time-concentration profiles of C98 in plasma after oral administration. Nude mice were orally administrated C98 at a dose of 40 mg/kg. Blood species were then collected at a serial of time points (0, 0.167, 0.5, 1, 1.5, 2, 4, 6, 8, 24 hr) and subject to LC-MS/MS analysis after treatment as described in the Methods section. Resultant plasma concentration versus time data was analyzed using WinNolin software.
(also on this page, place not known: www.impactjournals.com/oncotarget/ Oncotarget, Materials 2014 Supplementary) […]

Sequence of recombinant human PI3K isoform α (P42336 whole entry, canonical isoform): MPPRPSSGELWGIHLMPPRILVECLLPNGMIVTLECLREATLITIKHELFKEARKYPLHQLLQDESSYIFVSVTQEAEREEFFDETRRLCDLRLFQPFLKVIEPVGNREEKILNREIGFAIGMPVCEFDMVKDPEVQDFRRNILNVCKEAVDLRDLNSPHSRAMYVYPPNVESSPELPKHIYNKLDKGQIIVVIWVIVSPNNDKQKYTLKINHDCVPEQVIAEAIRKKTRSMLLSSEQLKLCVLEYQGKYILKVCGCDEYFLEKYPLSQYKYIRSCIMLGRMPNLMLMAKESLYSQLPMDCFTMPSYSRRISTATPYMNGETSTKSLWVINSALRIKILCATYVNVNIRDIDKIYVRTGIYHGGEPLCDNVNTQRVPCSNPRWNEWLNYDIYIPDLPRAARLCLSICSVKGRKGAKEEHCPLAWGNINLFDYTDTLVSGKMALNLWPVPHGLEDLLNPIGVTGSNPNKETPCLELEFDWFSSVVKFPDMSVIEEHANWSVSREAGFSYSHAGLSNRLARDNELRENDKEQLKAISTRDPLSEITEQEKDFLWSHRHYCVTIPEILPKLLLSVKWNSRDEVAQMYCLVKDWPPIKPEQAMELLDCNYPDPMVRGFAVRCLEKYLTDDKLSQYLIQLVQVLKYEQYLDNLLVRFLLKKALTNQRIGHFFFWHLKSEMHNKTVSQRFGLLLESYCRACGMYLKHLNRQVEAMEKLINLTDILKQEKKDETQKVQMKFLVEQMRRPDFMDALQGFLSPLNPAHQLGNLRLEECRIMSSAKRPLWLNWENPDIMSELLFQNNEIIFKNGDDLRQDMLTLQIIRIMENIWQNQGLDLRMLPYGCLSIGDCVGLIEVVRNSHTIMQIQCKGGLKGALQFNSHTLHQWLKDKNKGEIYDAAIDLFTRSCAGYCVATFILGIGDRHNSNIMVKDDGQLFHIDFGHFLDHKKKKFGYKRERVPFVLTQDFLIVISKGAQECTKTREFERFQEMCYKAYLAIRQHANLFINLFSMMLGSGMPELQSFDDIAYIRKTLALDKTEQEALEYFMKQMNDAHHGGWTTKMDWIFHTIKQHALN
Sequence of recombinant human PI3K isoform α (P27986 whole entry partner, canonical isoform): as the sequence (P27986 whole entry partner, canonical isoform) above

IC50 [1]: 590 nM
IC50 [2]: 3.65 µM
MRT ([4]; read-out: mean residence time (MRT)): 4.48 h
Cmax ([4]; read-out: median peak concentration (Cmax)): 367 ng/mL
Tmax ([4]; read-out: time to maximal concentration (Tmax)): 30 min
half-life ([4]; nude, po, 40 mg/kg, read-out: half-life (t1/2) (converted)): 122 min
SMILES: N#C/C(=C\C=C\c1ccc(-c2cc(Cl)ccc2Cl)o1)C(N)=S [C98]
suppression of PDK1 activity (PDK1): failed to suppress
phosphorylation levels of AKT, mTOR, p70S6K, and 4E-BP1 [3]: downregulated
